Laboratory results reported in patent publication US9801872B2, “Pyridinyl and fused pyridinyl triazolone derivatives” (Takeda Pharmaceutical Company Limited, priority 2013, dated 2017).

Molecular target: human BTK (Homo sapiens (Human), UniProt Q06187)
Experiment: BTK inhibition: BTK-mediated phosphorylation of FAM-labeled substrate 5-FAM-[…]-NH2 (Caliper LC-3000)
Format: biochemical
Conditions: for BTK Inhibition (pIC50): residues 382 to 659 of human BTK, 60 minutes at room temperature, pIC50 = -log(IC50), IC50 molar
Description: The activity of compounds as BTK inhibitors may be determined by a variety of methods, including in vitro and in vivo methods.
This construct engineers an in-frame translational fusion with the Glutathione-S-Transferase (GST) protein for use in affinity purification. The fusion protein derived from this construct contains a protease recognition sequence to liberate the BTK from the GST affinity tag. High-titer baculoviral stocks, generated using the Bac-to-Bac® system (Invitrogen), are used to express the recombinant protein in Spodoptera frugiperda Sf9 cells in 10 L Wave bags. Recombinant proteins are isolated from cellular extracts by passage over Glutathione Sepharose 4B (GE Healthcare) and the BTK moiety is released from the GST affinity tag by treatment with PreScission protease. The BTK recombinant protein is further purified by size exclusion chromatography (HiLoad 16/60 Superdex 200, GE Healthcare) in a buffer containing 20 mM Hepes (pH 7.4), 50 mM NaCl, 10 mM MgCl2, 0.25 mM TCEP and 0.1 mM EDTA. The purity of the fractions is assessed by SDS PAGE and the peak protein fractions are pooled and concentrated using Amicon Ultra-15 Centrifugal Filter Devices (Millipore).
The inhibitory properties of compounds relative to BTK is determined using a black 384-well-plate format in a buffer which contains 50 mM Hepes, 10 mM NaCl, 10 mM MgCl2, 0.2 mM EDTA, 0.01% Brij35®, 1 mM DTT, and 0.1 mg/mL BSA at pH 7.3. The test compound is prepared in DMSO using 2-fold serial dilutions for 11 data points, which are added to the buffer so that each dilution contains 3% DMSO. […] The reaction mixtures are incubated at room temperature for 60 minutes and then quenched by adding 25 μL of 50 mM EDTA. To quantify the fluorescent-labeled substrate and product following reaction, the test plate is loaded on a Caliper LC-3000, which measures percent of conversion by microfluidic-based separation.
The compounds were tested in accordance with the assay described on page 42 of the specification.

Chain of human BTK (Q06187 382-659): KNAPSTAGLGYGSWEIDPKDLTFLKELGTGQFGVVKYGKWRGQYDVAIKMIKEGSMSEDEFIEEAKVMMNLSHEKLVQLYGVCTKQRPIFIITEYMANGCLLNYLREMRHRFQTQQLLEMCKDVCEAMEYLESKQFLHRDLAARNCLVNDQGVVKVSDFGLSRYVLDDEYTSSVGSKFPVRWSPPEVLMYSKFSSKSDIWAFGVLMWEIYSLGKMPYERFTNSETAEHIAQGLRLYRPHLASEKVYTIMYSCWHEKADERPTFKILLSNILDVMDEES

Compound | BTK Inhibition (pIC50) | IC50 (read-out: BTK Inhibition (pIC50) (converted)) [nM]
C=CC(=O)N1CC[C@H](Nc2nc(-c3n[nH]c(=O)[nH]3)cc3cccc(OC)c23)C1 [Example 29, (S)-3-(1-((1-acryloylpyrrolidin-3-yl)amino)-8-methoxyisoquinolin-3-yl)-1H-1,2,4-triazol-5(4H)-one] | >8.6 | 
C=CC(=O)N1CCC[C@@H]1COc1nc(-c2n[nH]c(=O)[nH]2)cc2ccccc12 [Example 9, (R)-3-(1-((1-acryloylpyrrolidin-2-yl)methoxy)isoquinolin-3-yl)-1H-1,2,4-triazol-5(4H)-one] | >7.9 | 
C=C(C)C(=O)N1CC[C@H](Nc2nc(-c3n[nH]c(=O)[nH]3)cc3ccccc23)C1 [Example 10, (S)-3-(1-((1-methacryloylpyrrolidin-3-yl)amino)isoquinolin-3-yl)-1H-1,2,4-triazol-5(4H)-one] | 7.5 | 
C=CC(=O)N1CC[C@H](Oc2nc(-c3n[nH]c(=O)[nH]3)cc3cccnc23)C1 [Example 16, (S)-3-(8-((1-acryloylpyrrolidin-3-yl)oxy)-1,7-naphthyridin-6-yl)-1H-1,2,4-triazol-5(4H)-one] | >8.5 | 
C=CC(=O)N1CCC[C@H]1CNc1nc(-c2n[nH]c(=O)[nH]2)cc2ccccc12 [Example 6, (S)-3-(1-(((1-acryloylpyrrolidin-2-yl)methyl)amino)isoquinolin-3-yl)-1H-1,2,4-triazol-5(4H)-one] | 8.0 | 
C=CC(=O)N1CC[C@H](Nc2nc(-c3n[nH]c(=O)[nH]3)cc3ccc(F)cc23)C1 [Example 25, (S)-3-(1-((1-acryloylpyrrolidin-3-yl)amino)-7-fluoroisoquinolin-3-yl)-1H-1,2,4-triazol-5(4H)-one] | >8.6 | 
C=CC(=O)N1C[C@H](Oc2nc(-c3n[nH]c(=O)[nH]3)cc3ccccc23)[C@@H](C)C1 [Example 20, 3-(1-(((3R,4S)-1-acryloyl-4-methylpyrrolidin-3-yl)oxy)isoquinolin-3-yl)-1H-1,2,4-triazol-5(4H)-one] | >8.6 | 
C=CC(=O)N1C[C@@H](C)[C@H](Oc2nc(-c3n[nH]c(=O)[nH]3)cc3ccccc23)C1 [Example 21, 3-(1-(((3S,4R)-1-acryloyl-4-methylpyrrolidin-3-yl)oxy)isoquinolin-3-yl)-1H-1,2,4-triazol-5(4H)-one] | 6.9 | 
C=CC(=O)N1CC[C@H](Nc2nc(-c3n[nH]c(=O)[nH]3)cc3ccccc23)C1 [Example 8, (S)-3-(1-((1-acryloylpyrrolidin-3-yl)amino)isoquinolin-3-yl)-1H-1,2,4-triazol-5(4H)-one] | >8.6 | 
C=CC(=O)N1C[C@H](Oc2nc(-c3n[nH]c(=O)[nH]3)cc3ccccc23)[C@@H](C)C1 (racemic) [Example 19, 3-(1-(((3R,4S)-1-acryloyl-4-methylpyrrolidin-3-yl)oxy)isoquinolin-3-yl)-1H-1,2,4-triazol-5(4H)-one and 3-(1-(((3S,4R)-1-acryloyl-4-methylpyrrolidin-3-yl)oxy)isoquinolin-3-yl)-1H-1,2,4-triazol-5(4H)-one (mixture of enantiomers)] |  | < 6.31
C=C(C)C(=O)N1CC[C@H](Oc2nc(-c3n[nH]c(=O)[nH]3)cc3ccccc23)C1 [Example 12, (S)-3-(1-((1-methacryloylpyrrolidin-3-yl)oxy)isoquinolin-3-yl)-1H-1,2,4-triazol-5(4H)-one] | 6.9 | 
C=C(C)C(=O)N1CC[C@@H](Oc2nc(-c3n[nH]c(=O)[nH]3)cc3ccccc23)C1 [Example 1, (R)-3-(1-((1-methacryloylpyrrolidin-3-yl)oxy)isoquinolin-3-yl)-1H-1,2,4-triazol-5(4H)-one] | 6.7 | 
O=C(CCl)N1CC[C@H](Oc2nc(-c3n[nH]c(=O)[nH]3)cc3ccccc23)C1 [Example 33, (S)-5-(1-((1-(2-chloroacetyl)pyrrolidin-3-yl)oxy)isoquinolin-3-yl)-2,4-dihydro-3H-1,2,4-triazol-3-one] | >8.2 | 
C=CC(=O)N1CC[C@H](Nc2nc(-c3n[nH]c(=O)[nH]3)cc3cccc(F)c23)C1 [Example 23, (S)-3-(1-((1-acryloylpyrrolidin-3-yl)amino)-8-fluoroisoquinolin-3-yl)-1H-1,2,4-triazol-5(4H)-one] | >8.9 | 
C=CC(=O)N1CC[C@H](Oc2cc(C)cc(-c3n[nH]c(=O)[nH]3)n2)C1 [Example 30, (S)-3-(6-((1-acryloylpyrrolidin-3-yl)oxy)-4-methylpyridin-2-yl)-1H-1,2,4-triazol-5(4H)-one] | >8.6 | 
C=CC(=O)N1CCC[C@H](Oc2nc(-c3n[nH]c(=O)[nH]3)cc3ccccc23)C1 [Example 35, (S)-5-(1-((1-acryloylpiperidin-3-yl)oxy)isoquinolin-3-yl)-2,4-dihydro-3H-1,2,4-triazol-3-one] | 7.5 | 
C=CC(=O)N1CC[C@@H](Oc2nc(-c3n[nH]c(=O)[nH]3)cc3ccccc23)C1 [Example 2, (R)-3-(1-((1-acryloylpyrrolidin-3-yl)oxy)isoquinolin-3-yl)-1H-1,2,4-triazol-5(4H)-one] | 7.1 | 
C=CC(=O)N1CC[C@H](Oc2nc(-c3n[nH]c(=O)[nH]3)cc3ccccc23)C1 [Example 5, (S)-3-(1-((1-acryloylpyrrolidin-3-yl)oxy)isoquinolin-3-yl)-1H-1,2,4-triazol-5(4H)-one] | >8.7 | 
C=CC(=O)N1CC[C@H](Oc2nc(-c3n[nH]c(=O)[nH]3)ccc2C)C1 [Example 32, (S)-3-(6-((1-acryloylpyrrolidin-3-yl)oxy)-5-methylpyridin-2-yl)-1H-1,2,4-triazol-5(4H)-one] | 8.3 | 
C/C=C/C(=O)N1CC[C@@H](Oc2nc(-c3n[nH]c(=O)[nH]3)cc3ccccc23)C1 [Example 3, (R,E)-3-(1-((1-(but-2-enoyl)pyrrolidin-3-yl)oxy)isoquinolin-3-yl)-1H-1,2,4-triazol-5(4H)-one] | 6.5 | 
C=CC(=O)N1CCC[C@H]1COc1nc(-c2n[nH]c(=O)[nH]2)cc2ccccc12 [Example 7, (S)-3-(1-((1-acryloylpyrrolidin-2-yl)methoxy)isoquinolin-3-yl)-1H-1,2,4-triazol-5(4H)-one] | 8.0 | 
C=CC(=O)N1CC[C@H](Nc2nc(-c3n[nH]c(=O)[nH]3)cc3cccc(Cl)c23)C1 [Example 28, (S)-3-(1-((1-acryloylpyrrolidin-3-yl)amino)-8-chloroisoquinolin-3-yl)-1H-1,2,4-triazol-5(4H)-one] | >8.6 | 
C=CC(=O)NC1CCN(c2nc(-c3n[nH]c(=O)[nH]3)cc3ccccc23)C1 (stereo not drawn) [Example 4, N-(1-(3-(5-oxo-4,5-dihydro-1H-1,2,4-triazol-3-yl)isoquinolin-1-yl)pyrrolidin-3-yl)acrylamide] | >8.1 | 
C=CC(=O)N1CC[C@H](Nc2nc(-c3n[nH]c(=O)[nH]3)cc3cccnc23)C1 [Example 17, (S)-3-(8-((1-acryloylpyrrolidin-3-yl)amino)-1,7-naphthyridin-6-yl)-1H-1,2,4-triazol-5(4H)-one] | >8.6 | 
